Assay: Inhibition of TCDD-induced EROD activity in human HepG2 cells after 24 hrs
Type: cell-based

Going from CC(=O)N1/C(=C2\N=c3ccccc3=C2c2c(C3=Nc4ccccc4C3=O)[nH]c3ccccc23)C(=O)c2ccccc21 to O=C1C(c2[nH]c3ccccc3c2C2=c3ccccc3=N/C2=C2\Nc3ccccc3C2=O)=Nc2ccccc21 [BISINDIGOTIN], the IC50 falls from 3000 nM to 800 nM (3.8-fold). The second is the more potent here.

With O=c1cc(-c2ccccc2)oc2c1ccc1ccccc12 [ALPHA-NAPHTHOFLAVONE] the IC50 was 320 nM.
